Legend:
Test in all cases: relative viability (nuclei count vs DMSO), 5 days (fraction); higher = more cells survive
A549 = test system: A549
Method in brief: (§1)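 For relative viability, nuclei counts in treated wells were divided by those in vehicle wells. Lung cancer cell lines had been pin-tool dosed in 1536-well plates the day after seeding and cultured for 5 days, then fixed and stained in one step (final 0.05% Triton X-100, 1% formaldehyde, 1 ug/ml Hoechst) and imaged at 4×. Doses were one drug alone or a fixed anchor-drug dose plus five library-drug doses (not always all listed) in √10 steps, and values are duplicate-plate medians.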

SK-MES-1 = test system: SK-MES-1
Method in brief: as §1

IA-LM = test system: IA-LM
Method in brief: as §1

EBC-1 = test system: EBC-1
Method in brief: as §1

NCI-H1703 = test system: NCI-H1703
Method in brief: as §1

NCI-H1299 = test system: NCI-H1299
Method in brief: as §1

NCI-H1651 = test system: NCI-H1651
Method in brief: as §1

Calu-6 = test system: Calu-6
Method in brief: as §1

NC(=O)Nc1cc(-c2cccc(F)c2)sc1C(=O)N[C@H]1CCCNC1 [AZD7762] + CS(=O)(=O)CCNCc1ccc(-c2ccc3ncnc(Nc4ccc(OCc5cccc(F)c5)c(Cl)c4)c3c2)o1 [Lapatinib] (partner 2 µM)
relative viability (A549; first compound 0.01 µM): 1.12
relative viability (A549; first compound 0.03162 µM): 1.02
relative viability (A549; first compound 0.1 µM): 1.05
relative viability (A549; first compound 0.3162 µM): 0.823
relative viability (A549; first compound 1 µM): 0.198
relative viability (SK-MES-1; first compound 0.01 µM): 0.434
relative viability (SK-MES-1; first compound 0.03162 µM): 0.396
relative viability (SK-MES-1; first compound 0.1 µM): 0.457
relative viability (SK-MES-1; first compound 0.3162 µM): 0.468
relative viability (SK-MES-1; first compound 1 µM): 0.469
relative viability (IA-LM; first compound 0.01 µM): 1.13
relative viability (IA-LM; first compound 0.03162 µM): 1.11
relative viability (IA-LM; first compound 0.1 µM): 1.1
relative viability (IA-LM; first compound 0.3162 µM): 0.798
relative viability (IA-LM; first compound 1 µM): 0.16
relative viability (EBC-1; first compound 0.01 µM): 0.215
relative viability (EBC-1; first compound 0.03162 µM): 0.191
relative viability (EBC-1; first compound 0.1 µM): 0.234
relative viability (EBC-1; first compound 0.3162 µM): 0.199
relative viability (EBC-1; first compound 1 µM): 0.186
relative viability (NCI-H1703; first compound 0.01 µM): 0.627
relative viability (NCI-H1703; first compound 0.03162 µM): 0.31
relative viability (NCI-H1703; first compound 0.1 µM): 0.238
relative viability (NCI-H1703; first compound 0.3162 µM): 0.176
relative viability (NCI-H1703; first compound 1 µM): 0.156
relative viability (NCI-H1299; first compound 0.01 µM): 0.955
relative viability (NCI-H1299; first compound 0.03162 µM): 0.963
relative viability (NCI-H1299; first compound 0.1 µM): 0.968
relative viability (NCI-H1299; first compound 0.3162 µM): 0.811
relative viability (NCI-H1299; first compound 1 µM): 0.289
relative viability (NCI-H1651; first compound 0.01 µM): 0.93
relative viability (NCI-H1651; first compound 0.03162 µM): 0.832
relative viability (NCI-H1651; first compound 0.1 µM): 0.909
relative viability (NCI-H1651; first compound 0.3162 µM): 0.607
relative viability (NCI-H1651; first compound 1 µM): 0.195
relative viability (Calu-6; first compound 0.01 µM): 1.11
relative viability (Calu-6; first compound 0.03162 µM): 1.02
relative viability (Calu-6; first compound 0.1 µM): 0.96
relative viability (Calu-6; first compound 0.3162 µM): 0.2
relative viability (Calu-6; first compound 1 µM): 0.147

C=C1C(=O)O[C@@H](CCCCCCCC)[C@@H]1C(=O)O [C-75] + Cc1nc(NC(=O)N2CCC[C@H]2C(N)=O)sc1-c1ccnc(C(C)(C)C(F)(F)F)c1 [Alpelisib] (partner 2 µM)
relative viability (A549; first compound 0.08 µM): 0.828
relative viability (A549; first compound 0.253 µM): 0.909
relative viability (A549; first compound 0.8 µM): 0.824
relative viability (A549; first compound 2.53 µM): 0.579
relative viability (A549; first compound 8 µM): 0.716
relative viability (SK-MES-1; first compound 0.08 µM): 1.1
relative viability (SK-MES-1; first compound 0.253 µM): 0.876
relative viability (SK-MES-1; first compound 0.8 µM): 0.902
relative viability (SK-MES-1; first compound 2.53 µM): 0.864
relative viability (SK-MES-1; first compound 8 µM): 0.792
relative viability (IA-LM; first compound 0.08 µM): 0.71
relative viability (IA-LM; first compound 0.253 µM): 0.815
relative viability (IA-LM; first compound 0.8 µM): 0.74
relative viability (IA-LM; first compound 2.53 µM): 0.648
relative viability (IA-LM; first compound 8 µM): 0.761
relative viability (EBC-1; first compound 0.08 µM): 0.904
relative viability (EBC-1; first compound 0.253 µM): 0.763
relative viability (EBC-1; first compound 0.8 µM): 0.792
relative viability (EBC-1; first compound 2.53 µM): 0.7
relative viability (EBC-1; first compound 8 µM): 0.712
relative viability (NCI-H1703; first compound 0.08 µM): 0.337
relative viability (NCI-H1703; first compound 0.253 µM): 0.348
relative viability (NCI-H1703; first compound 0.8 µM): 0.325
relative viability (NCI-H1703; first compound 2.53 µM): 0.28
relative viability (NCI-H1703; first compound 8 µM): 0.327
relative viability (NCI-H1299; first compound 0.08 µM): 1.04
relative viability (NCI-H1299; first compound 0.253 µM): 0.979
relative viability (NCI-H1299; first compound 0.8 µM): 1.1
relative viability (NCI-H1299; first compound 2.53 µM): 0.966
relative viability (NCI-H1299; first compound 8 µM): 1.07
relative viability (NCI-H1651; first compound 0.08 µM): 0.871
relative viability (NCI-H1651; first compound 0.253 µM): 0.988
relative viability (NCI-H1651; first compound 0.8 µM): 1.02
relative viability (NCI-H1651; first compound 2.53 µM): 0.793
relative viability (NCI-H1651; first compound 8 µM): 0.882
relative viability (Calu-6; first compound 0.08 µM): 1.04
relative viability (Calu-6; first compound 0.253 µM): 0.926
relative viability (Calu-6; first compound 0.8 µM): 0.983
relative viability (Calu-6; first compound 2.53 µM): 0.796
relative viability (Calu-6; first compound 8 µM): 0.932
